Assay results from patent publication US6008189A, “Intravaginal preparation containing physiologically active peptide” (Teikoku Seiyaku Kabushiki Kaisha, priority 1993, dated 1999).

Tests used:
Assay type in all cases: in vivo, rat
[1] = system: Ovariectomized female Wistar rats; assay: Experiment 1: serum calcium reduction after intravaginal suppository, sucrose fatty acid ester plus citric acid versus each alone; conditions: 20 μg intravaginal
Procedure: To the mixture was added a commercially available base for intravaginal preparation; Witepsol S-55 (which is prepared from Witepsol E-85 so as to give a final intravaginal suppository having a melting point of 36.5° C., manufactured by Hils Co., Ltd., former Diamit Novel Co., Ltd) which was homogenized by previously warming and stirring thereof so as to give an intravaginal suppository with the total weight of 5.00 g. […] The mixture was poured into a tube (inside diameter: about 3 mm) made of teflon at about 40° C., cooled to solidify, and taken out from the tube. The solidified mixture was cut into pieces (weight: 50 mg) to give intravaginal suppositories for rats containing human calcitonin (20 μg/each). There were also obtained two kinds of intravaginal suppositories prepared by adding citric acid (50 mg) only, and prepared by adding a sucrose fatty acid ester (100 mg) only, likewise. There were obtained intravaginal suppositories containing only human calcitonin without citric acid nor a sucrose fatty acid ester, likewise, which are used as control.
(§1) An intravaginal suppository was administered into the rat's vagina, and the blood was collected periodically (2, 4 and 6 hours after administration of the test preparation).
(§2) The serum was separated, and the calcium level in the serum was determined by using a kit for determination of calcium (Calcium C Test Wako; manufactured by Wako Pure Chemical Industries, Ltd.) (n=3).

[2] = system: Ovariectomized female Wistar rats; assay: Experiment 2: serum calcium reduction, effect of various suppository bases; conditions: S-970 and citric acid, 20 μg intravaginal
Procedure: as §1, §2
(§3) In the same manner as in Experiment 1, each intravaginal suppository was administered to the rat's vagina, and the blood was collected periodically (2, 4 and 6 hours after administration of intravaginal suppository), and the calcium level in the serum thereof was determined (n=4).

[3] = system: Ovariectomized female Wistar rats; assay: Experiment 3: serum calcium reduction, effect of various sucrose fatty acid esters; conditions: with citric acid, 20 μg intravaginal
Procedure: as §1, §2
In the same manner, there were prepared various sucrose fatty acid esters having the same HLB value but being combined with a different fatty acid (Table B), and four kinds of intravaginal suppositories for rats were prepared by using each 100 mg of sucrose fatty acid ester.
as §3

[4] = system: Ovariectomized female Wistar rats; assay: Experiment 4: serum calcium reduction, effect of sucrose fatty acid ester concentration; conditions: sucrose fatty acid ester (S-970) 2 w/w % of suppository; citric acid 100 mg per 5.00 g; 20 μg intravaginal; 2 hr
Procedure: as §1, §2
Human calcitonin (2 mg) was precisely measured, and thereto were added citric acid (100 mg) and Ryoto-Sugar Ester S-970 (50 mg, 100 mg or 400 mg), and the mixture was mixed well.
In the same manner as in Experiment 1, each intravaginal suppository was administered to the rat's vagina, and the blood was collected periodically (2 and 4 hours after administration of intravaginal suppository), and the calcium level in the serum thereof was determined (n=3).

[5] = system: Ovariectomized female Wistar rats; assay: Experiment 5: serum calcium reduction, sucrose fatty acid ester with various organic acids; conditions: 20 μg intravaginal
Procedure: as §1, §2
In the same manner as in Experiment 1, each intravaginal suppository was administered to the rat's vagina, and the blood was collected periodically (2, 4 and 6 hours after administration of intravaginal suppository), and the calcium level in the serum thereof was determined (n=5).

[6] = system: Ovariectomized female Wistar rats; assay: Experiment 6: serum calcium reduction, effect of organic acid concentration; conditions: pH 3.5, S-970 100 mg per 5.00 g, 20 μg intravaginal
Procedure: as §1, §2
(§4) In the same manner as in Experiment 1, each intravaginal suppository was administered to the rat's vagina, and the blood was collected periodically (2, 4 and 6 hours after administration of intravaginal suppository), and the calcium level in the serum thereof was determined (n=3).

[7] = system: Ovariectomized female Wistar rats; assay: Experiment 7: serum calcium reduction, effect of pH of the solution in the suppository; conditions: citric acid and S-970, 20 μg intravaginal
Procedure: as §1, §2, §4

Substance: Human calcitonin
- Reduction rate (%) of calcium level in the serum ([1]; Control: suppository with human calcitonin only, no citric acid nor ester, 2 hr): 2.6%
- Reduction rate (%) of calcium level in the serum ([1]; Control: suppository with human calcitonin only, no citric acid nor ester, 4 hr): 2.2%
- Reduction rate (%) of calcium level in the serum ([1]; Control: suppository with human calcitonin only, no citric acid nor ester, 6 hr): 3.8%
- Reduction rate (%) of calcium level in the serum ([1]; suppository with citric acid only, 2 hr): 9.5%
- Reduction rate (%) of calcium level in the serum ([1]; suppository with citric acid only, 4 hr): 8.0%
- Reduction rate (%) of calcium level in the serum ([1]; suppository with citric acid only, 6 hr): 5.7%
- Reduction rate (%) of calcium level in the serum ([2]; base Cacao butter, 6 hr): 8.3%
- Reduction rate (%) of calcium level in the serum ([2]; base Witepsol S-55, 6 hr): 13.0%
- Reduction rate (%) of calcium level in the serum ([2]; base Witepsol W-35, 2 hr): 6.6%
- Reduction rate (%) of calcium level in the serum ([3]; Ryoto-Sugar Ester (S-570), HLB 5, stearic acid, 6 hr): 12.0%
- Reduction rate (%) of calcium level in the serum ([3]; Ryoto-Sugar Ester L-595 + L-1695 3:2, HLB 9, lauric acid, 2 hr): 11.0%
- Reduction rate (%) of calcium level in the serum ([3]; Ryoto-Sugar Ester L-595 + L-1695 3:2, HLB 9, lauric acid, 6 hr): 9.7%
- Reduction rate (%) of calcium level in the serum ([3]; Ryoto-Sugar Ester P-070 + P-1670 4:5, HLB 9, palmitic acid, 2 hr): 8.2%
- Reduction rate (%) of calcium level in the serum ([3]; Ryoto-Sugar Ester S-370 + S-1670 5:6, HLB 9, stearic acid, 2 hr): 6.9%
- Reduction rate (%) of calcium level in the serum ([3]; Ryoto-Sugar Ester S-970 1:0 (control), HLB 9, stearic acid, 2 hr (Table 4)): 6.3%
- Reduction rate (%) of calcium level in the serum ([3]; Ryoto-Sugar Ester S-970 1:0 (control), HLB 9, stearic acid, 6 hr (Table 4)): 11.0%
- Reduction rate (%) of calcium level in the serum [4]: 8.0%
- Reduction rate (%) of calcium level in the serum ([5]; organic acid Citric acid (pH 4) with Ryoto-Sugar Ester R-970, 6 hr): 8.4%
- Reduction rate (%) of calcium level in the serum ([5]; organic acid Lactic acid (pH 4) with Ryoto-Sugar Ester R-970, 2 hr): 17.0%
- Reduction rate (%) of calcium level in the serum ([5]; organic acid Lactic acid (pH 4) with Ryoto-Sugar Ester R-970, 6 hr): 5.4%
- Reduction rate (%) of calcium level in the serum ([5]; organic acid Malic acid (pH 4) with Ryoto-Sugar Ester R-970, 4 hr): 13.0%
- Reduction rate (%) of calcium level in the serum ([5]; organic acid Malic acid (pH 4) with Ryoto-Sugar Ester R-970, 6 hr): 7.0%
- Reduction rate (%) of calcium level in the serum ([5]; organic acid Tartaric acid (pH 4) with Ryoto-Sugar Ester R-970, 4 hr): 8.0%
- Reduction rate (%) of calcium level in the serum ([5]; organic acid Tartaric acid (pH 4) with Ryoto-Sugar Ester R-970, 6 hr): 3.4%
- Reduction rate (%) of calcium level in the serum ([6]; citric acid 1 w/w % of suppository, 6 hr): 9.2%
- Reduction rate (%) of calcium level in the serum ([6]; citric acid 2 w/w % of suppository, 6 hr): 8.2%
- Reduction rate (%) of calcium level in the serum ([6]; citric acid 5 w/w % of suppository, 6 hr): 7.5%
- Reduction rate (%) of calcium level in the serum ([6]; citric acid 10 w/w % of suppository, 4 hr): 19.0%
- Reduction rate (%) of calcium level in the serum ([6]; citric acid 10 w/w % of suppository, 6 hr): 5.0%
- Reduction rate (%) of calcium level in the serum ([7]; pH of the solution in suppository 3.0, 2 hr): 11.0%
- Reduction rate (%) of calcium level in the serum ([7]; pH of the solution in suppository 3.0, 4 hr): 22.0%
- Reduction rate (%) of calcium level in the serum ([7]; pH of the solution in suppository 3.0, 6 hr): 8.7%
- Reduction rate (%) of calcium level in the serum ([7]; pH of the solution in suppository 3.5, 2 hr): 9.4%
- Reduction rate (%) of calcium level in the serum ([7]; pH of the solution in suppository 3.5, 6 hr): 8.8%
- Reduction rate (%) of calcium level in the serum ([7]; pH of the solution in suppository 4.0, 2 hr): 9.4%
- Reduction rate (%) of calcium level in the serum ([7]; pH of the solution in suppository 4.5, 2 hr): 9.5%
- Reduction rate (%) of calcium level in the serum ([7]; pH of the solution in suppository 4.5, 6 hr): 9.1%
- Reduction rate (%) of calcium level in the serum ([7]; pH of the solution in suppository 5.0, 6 hr): 2.7%
- Reduction rate (%) of calcium level in the serum ([7]; pH of the solution in suppository 5.5, 2 hr): 8.1%
- Reduction rate (%) of calcium level in the serum ([7]; pH of the solution in suppository 5.5, 6 hr): 4.3%
